According to publication PMC10959927, “Platinum iodido drugs show potential anti-tumor activity, affecting cancer cell metabolism and inducing ROS and senescence in gastrointestinal cancer cells” (Communications Biology, 2024):
Several values for one entry are separate records, joined by “and”; a condition that tells them apart may be missing. Equal entries are not always repeated.

How the values were obtained:
Format in all cases: cell-based, human
PANC1 cells [1] = assay: Western blotting (p-p53, p-JNK, p-p38, p-ERK, p-CHK1/2, Mcl1, BID, BAX); conditions: PANC1, Fig. 4A, replicate values
Protocol: (§1) Total protein extracts were obtained by adding the lysis buffer: 25 mM HEPES pH 7.5, 0.3 M NaCl, 1.5 mM MgCl2, 0.2 mM EDTA, 0.5 mM DTT, 20 mM β-glicerophosphate, 0.1 mM Na3VO4, 0.1% triton X-100; in the presence of protease inhibitors. Twenty μg of protein per sample were loaded and resolved using 8%, 10% or 15% SDS-PAGE polyacrylamide gels, and then transferred onto PVDF membranes, followed by immunodetection using appropriate antibodies, purchased from Santa Cruz Technology: Mcl-1 (sc-819), Cell Signaling Technology: BIM, BID, BAX (#9942), p-p38 (1:2000, #4631), p-p53^ser15 (#9284), p-ERK1/2 (1:2000, #9106), p-CHK1^ser345 and p-CHK2^ser19 (#9931), Promega Corporation-Spain: p-JNK (#V7932), or Sigma-Aldrich: α-tubulin (1:10000, #TP026). Unless indicated, all antibodies were diluted 1:1000. Secondary antibodies conjugated with horseradish peroxidase were purchased from BioRad, and chemiluminescence detection was performed using ECL (Santa Cruz Biotechnology).

AGS cells [2] = assay: as above; conditions: for fold change p-ERK vs Tubulin / fold change p-JNK vs Tubulin / fold change p-p38 vs Tubulin / fold change p-p53 vs Tubulin: Fig. 4A, replicate values; for fold change BAX vs Tubulin / fold change BID full length vs Tubulin / fold change MCL1 vs Tubulin: Fig. S3B
Protocol: as §1

MKN45 cells = assay: Flow cytometry mitochondrial mass and membrane potential (MitoTracker Green / CMXRos)
Protocol: (§2) We used flow cytometry to study the mitochondrial mass, mitochondrial membrane potential (ΔΨm) and cellular senescence of untreated and treated cells. Cells (5 × 10^4) were seeded in 24-multiwell dishes and cultured overnight. […] Cells were tripsinized, stained with Mitoprobes and resuspended in Flow buffer [1X PBS; 3% Fetal Bovine Serum (v/v); 3 mM EDTA (v/v)] before analysis with a 4-laser Attune NxT Acoustic Cytometer (Thermo Fisher Scientific). For Mitoprobe assays, […] DAPI (Sigma) was used to exclude dead cells. Data were analyzed with FlowJo 9.3 software (Tree Star Inc., Ashland, OR). For mitochondrial mass and ΔΨm measurement, Mitotracker Green (MTGreen, M7514, Invitrogen) and Mitotracker Red CMXRos (CMXROS, M7512, Invitrogen) were used, respectively. Probes were incubated with cells for 30 min at 37 °C at a concentration of 100 nM (MTGreen) and 20 nM (CMXROS), and fluorescence was detected using the filters (Ex488nm/Em530/30) BL1 and (Ex561nm/Em585/16) YL1, respectively. To determine mitochondria functionality, the ratio between ΔΨm (MitoTracker Red CMXRos) versus Mit. Mass (MitoTracker Green) was calculated. The gating strategy used in all the Flow Cytometry experiments is reflected in Fig.S10.

PANC1 cells [3] = assay: as above
Protocol: as §2

AGS cells [4] = assay: as above; conditions: fold change vs C, replicates
Protocol: as §2

[5] = MKN45, fold change vs C, replicates
[6] = PANC1, fold change vs C, replicates

CC(C)[NH][Pt@SP1]([I])([I])[NH]C(C)C [I6, cis-[PtI2(isopropylamine)2]]
fold change p-p38 vs Tubulin (PANC1 cells [1]; Time 1 h): 2.603 fold change and 1.024 fold change and 1.89 fold change | fold change p-p53 vs Tubulin (PANC1 cells [1]; Time 1 h): 0.76 fold change and 1.24 fold change and 0.65 fold change | fold change p-ERK vs Tubulin (PANC1 cells [1]; Time 3 h): 0.5754 fold change and 1.698 fold change and 1.17 fold change | fold change p-JNK vs Tubulin (PANC1 cells [1]; Time 3 h): 0.5257 fold change and 0.2509 fold change and 3.356 fold change | fold change p-p38 vs Tubulin (PANC1 cells [1]; Time 3 h): 1.159 fold change and 1.033 fold change and 1.07 fold change | fold change p-p53 vs Tubulin (PANC1 cells [1]; Time 3 h): 0.78 fold change and 1.36 fold change and 1.16 fold change | fold change p-ERK vs Tubulin (PANC1 cells [1]; Time 6 h): 0.6008 fold change and 2.546 fold change and 1.66 fold change | fold change p-JNK vs Tubulin (PANC1 cells [1]; Time 6 h): 0.6321 fold change and 0.3554 fold change and 4.716 fold change | fold change p-p38 vs Tubulin (PANC1 cells [1]; Time 6 h): 0.976 fold change and 1.156 fold change and 1.0897 fold change | fold change p-p53 vs Tubulin (PANC1 cells [1]; Time 6 h): 1.01 fold change and 0.69 fold change and 0.99 fold change | fold change p-ERK vs Tubulin (PANC1 cells [1]; Time 24 h): 0.4409 fold change and 1.892 fold change and 1.09 fold change | fold change p-JNK vs Tubulin (PANC1 cells [1]; Time 24 h): 0.5968 fold change and 0.8335 fold change and 2.596 fold change | fold change p-p38 vs Tubulin (PANC1 cells [1]; Time 24 h): 1.91 fold change and 1.31 fold change and 1.357 fold change | fold change p-p53 vs Tubulin (PANC1 cells [1]; Time 24 h): 2.28 fold change and 1.99 fold change and 1.04 fold change | activation of p53 (p-p53 western blot) (AGS cells [2]; IC50, 1, 3, 6 and 24 h): did not activate p53 | phosphorylation of CHK1/2 (DDR pathway, western blot) (AGS cells [2]; IC50, 1, 3, 6 or 24 h): did not activate | fold change p-ERK vs Tubulin (AGS cells [2]; Time 1 h): 2.604 fold change and 2.955 fold change and 1.91 fold change | fold change p-JNK vs Tubulin (AGS cells [2]; Time 1 h): 1.478 fold change and 1.305 fold change and 1.607 fold change | fold change p-p38 vs Tubulin (AGS cells [2]; Time 1 h): 1.462 fold change and 1.894 fold change and 2.196 fold change | fold change p-p53 vs Tubulin (AGS cells [2]; Time 1 h): 0.562 fold change and 0.6997 fold change and 1.25 fold change | fold change p-ERK vs Tubulin (AGS cells [2]; Time 3 h): 1.3326 fold change and 1.834 fold change and 1.749 fold change | fold change p-JNK vs Tubulin (AGS cells [2]; Time 3 h): 0.8249 fold change and 0.7387 fold change and 1.623 fold change | fold change p-p38 vs Tubulin (AGS cells [2]; Time 3 h): 1.1118 fold change and 2.258 fold change and 0.7258 fold change | fold change p-p53 vs Tubulin (AGS cells [2]; Time 3 h): 0.3925 fold change and 0.7056 fold change and 1.358 fold change | fold change p-ERK vs Tubulin (AGS cells [2]; Time 6 h): 1.495 fold change and 1.997 fold change and 1.556 fold change | fold change p-JNK vs Tubulin (AGS cells [2]; Time 6 h): 0.7672 fold change and 1.335 fold change and 1.232 fold change | fold change p-p38 vs Tubulin (AGS cells [2]; Time 6 h): 1.675 fold change and 3.507 fold change and 1.086 fold change | fold change p-p53 vs Tubulin (AGS cells [2]; Time 6 h): 0.5607 fold change and 0.7436 fold change and 1.621 fold change | fold change p-ERK vs Tubulin (AGS cells [2]; Time 24 h): 0.7805 fold change and 2.6246 fold change and 1.218 fold change | fold change p-JNK vs Tubulin (AGS cells [2]; Time 24 h): 0.8639 fold change and 0.8519 fold change and 1.138 fold change | fold change p-p38 vs Tubulin (AGS cells [2]; Time 24 h): 2.641 fold change and 0.9281 fold change and 1.316 fold change | fold change p-p53 vs Tubulin (AGS cells [2]; Time 24 h): 0.6954 fold change and 1.1071 fold change and 1.226 fold change | fold change BAX vs Tubulin (AGS cells [2]; time 1 h): 1.29 fold change and 0.734 fold change and 1.017 fold change | fold change BID full length vs Tubulin (AGS cells [2]; time 1 h): 0.722 fold change and 1.325 fold change and 0.67 fold change | fold change MCL1 vs Tubulin (AGS cells [2]; time 1 h): 0.493 fold change and 0.586 fold change and 0.597 fold change | fold change BAX vs Tubulin (AGS cells [2]; time 3 h): 0.759 fold change and 1.497 fold change and 1.286 fold change | fold change BID full length vs Tubulin (AGS cells [2]; time 3 h): 1.126 fold change and 1.525 fold change and 0.803 fold change | fold change MCL1 vs Tubulin (AGS cells [2]; time 3 h): 0.592 fold change and 1.105 fold change and 0.81 fold change | fold change BAX vs Tubulin (AGS cells [2]; time 6 h): 1.353 fold change and 1.942 fold change and 1.061 fold change | fold change MCL1 vs Tubulin (AGS cells [2]; time 6 h): 0.911 fold change and 1.666 fold change and 1.549 fold change | fold change BID full length vs Tubulin (AGS cells [2]; time 24 h): 1.406 fold change and 1.917 fold change and 1.97 fold change | Fold change ΔΨm/MM (MKN45 cells; MKN45, IC50 doses 24 h, CMX-ROS/MitoGreen ratio vs untreated 1.0): 0.26 and 0.21 and 0.27 | Fold change %CMXROS, ΔΨm (MKN45 cells; [5]): 0.24 and 0.19 and 0.3 | Fold change %MTGreen, MM (MKN45 cells; [5]): 0.93 and 0.91 and 1.1 | Fold change ΔΨm/MM (PANC1 cells [3]; PANC1, IC50 doses 24 h, CMX-ROS/MitoGreen ratio vs untreated 1.0): 0.61 and 0.39 and 0.44 | Fold change %CMXROS, ΔΨm (PANC1 cells [3]; [6]): 0.75 and 0.98 and 0.61 | Fold change %MTGreen, MM (PANC1 cells [3]; [6]): 1.22 and 2.53 and 2.1 | Fold change %CMXROS, ΔΨm (AGS cells [4]): 0.58 and 0.29 and 0.42 | Fold change %MTGreen, MM (AGS cells [4]): 0.83 and 0.75 and 1.298
